What was measured:
[1] = tested on: Mi-2β function (CXCL9, CXCL10, IRF1 expression) in A375 cells; assay: Cell-based assay of inhibitory activity on Mi-2β function, A375; settings: summary of Table 3 (A375 and B16)
Procedure: The total RNA was extracted with QIAGEN RNeasy kit […] for cDNA synthesis with SuperScript II Reverse Transcriptase (Invitrogen). In total, 40 ng cDNA was used for quantitative real-time PCR amplification by TaqMan Gene Expression Master Mix (Thermo Fisher Scientific). The relative transcript levels were normalized with GAPDH expression. The data were calculated with the comparative CT method.

[2] = target: T1, recombinant purified human Mi-2β protein (Homo sapiens, UniProt Q14839); assay: FRET-based nucleosome repositioning assay (EpiDyne-FRET); format: biochemical; settings: FRET-based nucleosome repositioning assay; read-out: IC50 against Mi-2β
T1 construct: made in house
Procedure: To screen small molecules that inhibit Mi-2β activity, Homology Modeling was carried out using Structure Prediction Wizard in Prime (49, 50). Mi-2β belongs to the CHD family of chromatin remodelers, which share highly conserved ATPase/helicase domains (51, 52). The Homology Model of Mi-2β was generated using the yeast CHD1 structure (PDB code: 3MWY) as template and the sequence was obtained from Uniprot (53), which clearly depicted the interaction of Mi-2β binding pocket and ATP (FIG. 10a). Virtual screening was done with the enzyme hinge region ligands database and nucleoside mimetic database from Enamine. All ligands of ˜23,010 compounds were docked to the ATP binding site using SP docking and post-processed with Prime MM-GBSA. Ligands with a methyldihydroimidazopyridinone structure were predicted to bind best to the ATP binding region of Mi-2β. To analyze biochemically the inhibitory activity of those inhibitors, a Fluorescence Resonance Energy Transfer (FRET)-based nucleosome repositioning assay (54, 55) was designed and modified using recombinant purified human Mi-2β protein to screen an in-house library of small molecular compounds with a methyldihydroimidazopyridinone structure (FIG. 10b). Briefly, the recombinant nucleosome substrates consist of a Cy5-labeled human histone octamer (H2A T120C-Cy5) wrapped with 5′ Cy3-labeled DNA, which contains a terminal nucleosome 601 positioning sequence. The 601 sequence provides the most thermodynamically preferred locations on DNA for histone octamer (56). FRET signaling was monitored by exciting the nucleosomes at the Cy3 absorption maximum and measuring Cy5 emissions and consequently the FRET signal is at a maximum at the assembled starting point. In the presence of ATP, Mi-2β induces the histone octamer to translocate along the DNA such that the Cy3-labeled DNA 5′ end is moved away from the Cy5-labeled octamer and consequently the FRET signal is decreased (FIG. 10b). The reaction conditions for nucleosome repositioning were modified through multiple rounds of optimization and validation (FIG. 10c-d). […]

melanoma = settings: clinical data; cited from earlier work

T1 sequence (Q14839 whole entry): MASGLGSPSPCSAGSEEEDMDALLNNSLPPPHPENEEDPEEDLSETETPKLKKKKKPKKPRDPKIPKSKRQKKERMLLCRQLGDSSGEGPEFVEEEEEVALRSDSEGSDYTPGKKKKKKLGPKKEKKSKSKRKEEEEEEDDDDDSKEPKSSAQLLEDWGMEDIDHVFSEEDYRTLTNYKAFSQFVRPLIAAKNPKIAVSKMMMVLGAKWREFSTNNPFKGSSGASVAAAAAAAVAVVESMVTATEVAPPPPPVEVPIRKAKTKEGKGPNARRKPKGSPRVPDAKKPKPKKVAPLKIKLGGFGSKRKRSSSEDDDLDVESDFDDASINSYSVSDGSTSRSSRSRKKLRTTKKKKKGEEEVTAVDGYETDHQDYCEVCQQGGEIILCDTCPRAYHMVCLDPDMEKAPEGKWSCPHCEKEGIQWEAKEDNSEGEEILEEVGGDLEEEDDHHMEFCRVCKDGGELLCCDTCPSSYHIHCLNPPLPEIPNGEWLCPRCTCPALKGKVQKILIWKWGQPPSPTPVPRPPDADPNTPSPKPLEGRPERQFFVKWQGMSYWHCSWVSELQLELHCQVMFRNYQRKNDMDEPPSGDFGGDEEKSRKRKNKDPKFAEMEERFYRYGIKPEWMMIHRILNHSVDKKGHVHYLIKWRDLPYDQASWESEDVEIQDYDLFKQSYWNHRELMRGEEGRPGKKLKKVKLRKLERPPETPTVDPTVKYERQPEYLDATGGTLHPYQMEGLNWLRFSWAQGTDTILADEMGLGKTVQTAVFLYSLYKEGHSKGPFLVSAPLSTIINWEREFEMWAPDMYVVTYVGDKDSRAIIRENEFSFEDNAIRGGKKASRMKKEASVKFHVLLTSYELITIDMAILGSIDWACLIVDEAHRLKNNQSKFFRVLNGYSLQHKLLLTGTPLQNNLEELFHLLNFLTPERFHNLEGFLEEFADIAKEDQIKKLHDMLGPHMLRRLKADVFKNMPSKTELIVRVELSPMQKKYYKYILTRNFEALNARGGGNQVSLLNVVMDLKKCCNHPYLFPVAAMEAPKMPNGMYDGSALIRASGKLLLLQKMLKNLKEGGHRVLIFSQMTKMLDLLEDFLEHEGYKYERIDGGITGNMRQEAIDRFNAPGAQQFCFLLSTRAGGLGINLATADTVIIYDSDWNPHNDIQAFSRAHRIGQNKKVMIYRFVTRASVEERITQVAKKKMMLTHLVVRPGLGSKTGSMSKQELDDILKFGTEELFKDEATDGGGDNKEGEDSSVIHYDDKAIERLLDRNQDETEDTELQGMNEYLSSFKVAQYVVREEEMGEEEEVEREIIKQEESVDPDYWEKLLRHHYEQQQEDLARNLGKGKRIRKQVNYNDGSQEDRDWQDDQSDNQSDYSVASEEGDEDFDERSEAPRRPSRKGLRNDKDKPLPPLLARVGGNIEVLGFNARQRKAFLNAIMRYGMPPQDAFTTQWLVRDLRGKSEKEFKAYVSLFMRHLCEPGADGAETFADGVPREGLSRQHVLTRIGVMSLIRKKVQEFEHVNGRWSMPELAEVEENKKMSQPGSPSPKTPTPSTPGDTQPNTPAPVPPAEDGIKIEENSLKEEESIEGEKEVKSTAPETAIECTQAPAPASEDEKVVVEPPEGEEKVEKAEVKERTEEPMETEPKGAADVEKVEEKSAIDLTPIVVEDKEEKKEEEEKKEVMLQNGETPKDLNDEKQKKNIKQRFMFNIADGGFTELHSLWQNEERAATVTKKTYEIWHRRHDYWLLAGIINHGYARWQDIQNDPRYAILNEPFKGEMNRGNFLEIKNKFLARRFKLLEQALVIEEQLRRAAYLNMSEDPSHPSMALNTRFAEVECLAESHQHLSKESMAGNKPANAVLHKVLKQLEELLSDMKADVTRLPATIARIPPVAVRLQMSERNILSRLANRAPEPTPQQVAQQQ

IC50 [2] [µM] | Compound | inhibitory activity on Mi-2β function (enhanced expression of IFN-γ-responsive genes) [1] | melanoma patients that respond (melanoma) [%]
– | Cc1c(C(=O)NC2CCn3ccnc3C2)cccc1-c1cnc2[nH]c(=O)n(C)c2c1 (stereo not shown) [SJW-6-004] | high inhibitory activity | –
6.97 ± 2.07 | Cn1c(=O)[nH]c2ncc(-c3cccc(C(=O)NC4CCn5ccnc5C4)c3)cc21 (stereo not shown) [Z36] | high inhibitory activity | –
– | Cn1c(=O)n(C)c2ncc(-c3cccc(C(=O)NC4CCn5ccnc5C4)c3)cc21 (stereo not shown) [ZW-7-023] | high inhibitory activity | –
– | O=C(NC1CCn2ccnc2C1)c1cccc(-c2cnc3[nH]c(=O)n(Cc4cccc(C(F)(F)F)c4)c3c2)c1 (stereo not shown) [ZW-7-059] | high inhibitory activity | –
– | ipilimumab: anti-CTLA-4 antibody | – | 20
– | pembrolizumab: anti-PD-1 antibody | – | 33

Reference: patent US12268674B2, “Mi-2β inhibitor as an immunotherapy agent” (BioVentures, LLC, priority 2021, dated 2025)
